Patent US20240238212A1, “LIPID COMPOUNDS AND LIPID NANOPARTICLE COMPOSITIONS” (SUZHOU ABOGEN BIOSCIENCES CO., LTD., priority 2022, published 2024)

Tests used:
[1] = tested on: human erythropoietin (hEPO) mRNA expression; assay: Animal Study 1: hEPO mRNA LNPs i.v. in mice, serum EPO by ELISA; assay type: in vivo; details: female ICR mice, 0.5 mg/kg tail vein injection, blood e.g. 6 hours post administration; relative to MC3 LNP
Method: Lipid nanoparticles comprising compounds in the following table encapsulating human erythropoietin (hEPO) mRNA were systemically administered to 6-8 week old female ICR mice (Xipuer-Bikai, Shanghai) at 0.5 mg/kg dose by tail vein injection and mice blood were sampled at specific time points (e.g., 6 hours) post administration. In addition to the aforementioned tested groups, lipid nanoparticles comprising dilinoleylmethyl-4-dimethylaminobutyrate (DLin-MC3-DMA, usually abbreviated to MC3) encapsulating hEPO mRNA were similarly administered at the same dose to age and gender comparative groups of mice as a positive control.
Mice were euthanized by CO2 overdoses after the last sampling time point. Serum were separated from total blood by centrifugation at 5000 g for 10 minutes at 4 T, snap-frozen and stored at −80 T for analysis. ELISA assay were carried out using a commercial kit (DEP00, R&D systems) according to manufacturer's instructions.
Characteristics of tested lipid nanoparticles, including EPO expression levels over MC3 measured from the tested group are listed in the table below.

[2] = Lipid nanoparticle size and polydispersity by dynamic light scattering; assay type: physicochemical; details: LNP comprising the compound, hEPO mRNA; for Size (nm): cationic lipid/DSPC/cholesterol/PEG-lipid 50:10:38.5:1.5
Method: (§1) Briefly, a cationic lipid provided herein, DSPC, cholesterol, and PEG-lipid were solubilized in ethanol at a molar ratio of 50:10:38.5:1.5, and mRNA were diluted in 10 to 50 mM citrate buffer, pH=4. The LNPs were prepared at a total lipid to mRNA weight ratio of approximately 10:1 to 30:1 by mixing the ethanolic lipid solution with the aqueous mRNA solution at a volume ratio of 1:3 using a microfluidic apparatus, total flow rate ranging from 9-30 mL/min. Ethanol were thereby removed and replaced by DPBS using dialysis. Finally, the lipid nanoparticles were filtered through a 0.2 μm sterile filter.
(§2) Lipid nanoparticle size were determined by dynamic light scattering using a Malvern Zetasizer Nano ZS (Malvern UK) using a 173° backscatter detection mode. The encapsulation efficiency of lipid nanoparticles were determined using a Quant-it Ribogreen RNA quantification assay kit (Thermo Fisher Scientific, UK) according to the manufacturer's instructions.

[3] = Encapsulation efficiency of lipid nanoparticles (Quant-it Ribogreen RNA assay); assay type: physicochemical; details: LNP comprising the compound, hEPO mRNA
Method: as §1, §2

[4] = Apparent pKa of LNP formulations (TNS fluorescence assay); assay type: physicochemical; details: LNP formulation, TNS assay (Table 2)
Method: As reported in literature, the apparent pKa of LNP formulations correlates with the delivery efficiency of LNPs for nucleic acids in vivo. The apparent pKa of each formulation was determined using an assay based on fluorescence of 2-(p-toluidino)-6-napthalene sulfonic acid (TNS). LNP formulations comprising of cationic lipid/DSPC/cholesterol/DMG-PEG (50/10/38.5/1.5 mol %) in PBS were prepared as described above. TNS was prepared as a 300 μM stock solution in distilled water. LNP formulations were diluted to 0.1 mg/mL total lipid in 3 mL of buffered solutions containing 50 mM sodium citrate, 50 mM sodium phosphate, 50 mM sodium borate, and 30 mM sodium chloride where the pH ranged from 3 to 9. An aliquot of the TNS solution was added to give a final concentration of […] and following vortex mixing fluorescence intensity was measured at room temperature in a Molecular Devices Spectramax iD3 spectrometer using excitation and mission wavelengths of 325 nm and 435 nm. A sigmoidal best fit analysis was applied to the fluorescence data and the pKa value was measured as the pH giving rise to half-maximal fluorescent intensity.

SMILES | EPO expression over MC3 [1] | Polydispersity [2] | Size (nm) [2] | Encapsulation efficiency [3] | Apparent pKa [4]
CCCCCCCC(=O)OCC(CCCCN(CCCCC(COC(=O)CCCCCCC)COC(=O)CCCCCCC)CCCNc1c(N(CC)CC)c(=O)c1=O)COC(=O)CCCCCCC [Compound 31] | A (≥2) | 0.073 | 72.36 nm | 88.17% | 6.221
CCCCCCCCC(CCCCCC)COC(=O)CCCCCN(CCO)CCCCCC(=O)OCC(CC)(COC(=O)CCCCCCC)COC(=O)CCCCCCC (stereo not shown) [Compound 84] | A (≥2) | 0.022 | 72.82 nm | 94.81% | 6.355
CCCCCCCCC(CCCCCC)CNC(=O)CCCCCN(CCCCC(COC(=O)CCCCCCC)COC(=O)CCCCCCC)CCC1(O)CCCCC1 (stereo not shown) [Compound 63] | C (≥0.1 and <1) | 0.159 | 130.62 nm | 90.10% | 6.297
CCCCCCCCOC(CCCCCN(CCCCCO)CCCCCC(OCCCCCCCC)OCCCCCCCC)OCCCCCCCC [Compound 19] | B (≥1 and <2) | 0.07 | 64.48 nm | 95.52% | 6.216
CCCCCCCC(=O)OCC(COC(=O)CCCCCCC)COC(=O)CCCCCN(CCCCO)CCCCCC(=O)OCC(COC(=O)CCCCCCC)COC(=O)CCCCCCC [Compound 67] | A (≥2) | 0.026 | 87.2 nm | 94.95% | 6.705
CCCCCCCC(=O)OCC(CCCCN(CCCCC(COC(=O)CCCCCCC)COC(=O)CCCCCCC)C1CCC(O)CC1)COC(=O)CCCCCCC (stereo not shown) [Compound 16] | A (≥2) | 0.021 | 68.14 nm | 90.78% | 6.509
CCCCCCCCC(CCCCCC)CNC(=O)CCCCCN(CCO)CCCCC(COC(=O)C(CCCCCC)CCCCCCCC)COC(=O)C(CCCCCC)CCCCCCCC (stereo not shown) [Compound 26] | C (≥0.1 and <1) | 0.01 | 55.11 nm | 85.33% | 6.332
CCCCCCCCCCCCCCCCCC(=O)OCCCCCCN(CCO)CCCCC(COC(=O)CCCCCCC)COC(=O)CCCCCCC [Compound 21] | B (≥1 and <2) | 0.017 | 73.11 nm | 93.42% | 6.962
CCCCCCCCCC(=O)OCC(COC(=O)CCCCCCCCC)COC(=O)CCCCCN(CCO)CCCCCC(=O)OCC(COC(=O)CCCCCCCCC)COC(=O)CCCCCCCCC [Compound 71] | A (≥2) | 0.098 | 68.05 nm | 96.34% | 6.599
CCCCCCCCOC(CCCCCN(CCO)CCCCCC(OCCCCCCCC)OCCCCCCCC)OCCCCCCCC [Compound 15] | C (≥0.1 and <1) | 0.096 | 77.33 nm | 94.67% | 6.219
CCCCCCCC(=O)OCC(CCCCN(CCCCC(COC(=O)CCCCCCC)COC(=O)CCCCCCC)[C@@H]1CC[C@H](O)C1)COC(=O)CCCCCCC [Compound 47] | A (≥2) | 0.039 | 91.46 nm | 89.99% | 6.767
CCCCCCCC(=O)OCC(COC(=O)CCCCCCC)COC(=O)CCCCCN(CCCCCO)CCCCCC(=O)OCC(COC(=O)CCCCCCC)COC(=O)CCCCCCC [Compound 68] | A (≥2) | 0.010 | 100.16 nm | 94.91% | 6.582
CCCCCCCCCCC(=O)OCC(COC(=O)CCCCCCCCCC)COC(=O)CCCCCN(CCO)CCCCCC(=O)OCC(COC(=O)CCCCCCCCCC)COC(=O)CCCCCCCCCC [Compound 72] | A (≥2) | 0.111 | 72.07 nm | 96.28% | 6.728
CCCCCCCCCCCCC(=O)OCC(COC(=O)CCCCCCCCCCCC)COC(=O)CCCCCN(CCO)CCCCCC(=O)OCC(COC(=O)CCCCCCCCCCCC)COC(=O)CCCCCCCCCCCC [Compound 74] | C (≥0.1 and <1) | 0.012 | 66.23 nm | 94.82% | 6.283
CCCCCCCC(=O)OCC(COC(=O)CCCCCCC)COC(=O)CCCCCN(CCCCCCO)CCCCCC(=O)OCC(COC(=O)CCCCCCC)COC(=O)CCCCCCC [Compound 69] | B (≥1 and <2) | 0.012 | 106.71 nm | 94.81% | 6.271
CCCCCCCC(=O)OCC(C)(COC(=O)CCCCCCC)COC(=O)CCCCCN(CCO)CCCCCC(=O)OCC(C)(COC(=O)CCCCCCC)COC(=O)CCCCCCC [Compound 64] | A (≥2) | 0.094 | 83.57 nm | 94.94% | 6.575
CCCCCCCCC(CCCCCC)CNC(=O)CCCCCN(CCCCC(COC(=O)CCCCCCC)COC(=O)CCCCCCC)CC1(CO)CCCC1 (stereo not shown) [Compound 62] | D (<0.1) | 0.031 | 71.06 nm | 88.45% | 5.299
CCCCCCCC(=O)OCC(COC(=O)CCCCCCC)OCCCN(CCCOC(COC(=O)CCCCCCC)COC(=O)CCCCCCC)CCN(CCO)C1CCCCC1 [Compound 14] | A (≥2) | 0.049 | 91.43 nm | 82.84% | 6.457
CCCCCCCCCCCCCCCCCC(=O)OCCCCCCN(CCCCC(COC(=O)CCCCCCC)COC(=O)CCCCCCC)C1CCC(O)CC1 (stereo not shown) [Compound 36] | C (≥0.1 and <1) | 0.1156 | 78.92 nm | 85.90% | 6.867
CCCCCCCC(=O)OCC(CCCCN(CCCCC(COC(=O)CCCCCCC)COC(=O)CCCCCCC)CCCNc1c(N(C)CC)c(=O)c1=O)COC(=O)CCCCCCC [Compound 34] | A (≥2) | 0.04761 | 67.6 nm | 89.70% | 6.34
CCCCCCCC(=O)OCC(CCCCN(CCCCCNc1c(N(C)C)c(=O)c1=O)CCCCC(COC(=O)CCCCCCC)COC(=O)CCCCCCC)COC(=O)CCCCCCC [Compound 28] | C (≥0.1 and <1) | 0.077 | 68.48 nm | 89.90% | 6.593
CCCCCCCCC(=O)OCC(COC(=O)CCCCCCCC)COC(=O)CCCCCN(CCO)CCCCCC(=O)OCC(COC(=O)CCCCCCCC)COC(=O)CCCCCCCC [Compound 75] | A (≥2) | 0.074 | 66.83 nm | 93.47% | 6.703
CCCCCCCC(=O)OCC(CCCCN(CCCCC(COC(=O)CCCCCCC)COC(=O)CCCCCCC)[C@H]1C[C@@H](O)C1)COC(=O)CCCCCCC [Compound 43] | A (≥2) | 0.057 | 64.77 nm | 89.21% | 6.653
